From US9586961B2, “Homopiperazine derivatives as protein tyrosine kinase inhibitors and pharmaceutical use thereof” (LEO PHARMA A/S, priority 2010, dated 2017)

Experiments:
Format in all cases: biochemical
JAK2 = biological target: T1, JAK2 (Homo sapiens, UniProt O60674); experiment: JAK2 kinase assay (HTRF, inhibition of phosphorylation of a synthetic peptide); settings: catalytic domain, His-tag; 4 μM ATP (Km); read-out: JAK2 kinase inhibitory activity (EC50)
T1 construct: All four purified enzymes contain only the catalytic domain; His (N); purchased Carna Biosciences, Inc; host or cells: baculovirus expression system
Experimental: (§1) JAK1, JAK2, JAK3 and TYK2 Kinase Assays:
(§2) Human baculovirus-expressed JAK1, 2, 3 and TYK2 were purchased from Carna Biosciences, Inc. All four purified enzymes contain only the catalytic domain. JAK1 (aa 850-1154) and TYK2 (aa 871-1187) are expressed with an N-terminally fused GST-tag, and JAK2 and JAK3 with an N-terminally fused His-tag. Inhibition of phosphorylation of a synthetic peptide was measured in an HTRF-based assay using the TK substrate-Biotin from the CisbioHTRFKinEASE TK kit. First, 2 μl of TK solution (TK substrate-biotin in kinase buffer [1× enzymatic buffer from HTRFKinEASE TK kit, 1 mM DTT]) is added to a plate containing 1 μl prediluted compound (final assay concentration DMSO: 0.75%). Then, 5 μl kinase-ATP mix (prepared in kinase buffer) is added to the wells and the plates are incubated at RT for 20-30 min. For all four kinases a concentration of ATP that corresponded to the Km for ATP was used. The final concentrations of buffers, substrate, kinase and ATP were: JAK1: 50 mMHepes buffer pH 7.0, 0.01% BSA, 10 mM MgCl2, 1 mM DTT, 7 μM ATP, 50 nMSEB, 1 μM TK Substrate-Biotin and 5 ng JAK1; JAK2: 50 mM Hepes buffer pH 7.0, 0.01% BSA, 5 mM MgCl2, 1 mM DTT, 4 μM ATP, 1 μM TK Substrate-Biotin and 0.1 ng JAK2; JAK3: 50 mMHepes buffer pH 7.0, 0.01% BSA, 5 mM MgCl2, 1 mM DTT, 2 μM ATP, 1 μM TK Substrate-Biotin and 0.3 ng JAK3; TYK2: 50 mMHepes buffer pH 7.0, 0.01% BSA, 5 mM MgCl2, 1 mM DTT, 13 μM ATP, 50 nMSEB, 1 μM TK Substrate-Biotin and 0.8 ng TYK2. Thereafter, the kinase reaction is stopped by adding 4 μl detection mix (final concentrations: 50 mM Hepes buffer pH 7.0, 0.01% BSA, 0.8 M KF, 20 mM EDTA, 42 nM Streptavidin-XL665 and 1:400 STKAbCryptate) and the plates are incubated overnight in the dark. The HTRF signal is read using an Envision plate reader.

JAK1 = biological target: T2, JAK1 (Homo sapiens, UniProt P23458); experiment: JAK1 kinase assay (HTRF, inhibition of phosphorylation of a synthetic peptide); settings: catalytic domain aa 850-1154, GST-tag; 7 μM ATP (Km); read-out: JAK1 kinase inhibitory activity (EC50)
T2 construct: JAK1 (aa 850-1154) and TYK2 (aa 871-1187) are expressed with an N-terminally fused GST-tag; GST (N); purchased Carna Biosciences, Inc; host or cells: baculovirus expression system
Experimental: as §1, §2

JAK3 = biological target: T3, JAK3 (Homo sapiens, UniProt P52333); experiment: JAK3 kinase assay (HTRF, inhibition of phosphorylation of a synthetic peptide); settings: catalytic domain, His-tag; 2 μM ATP (Km); read-out: JAK3 kinase inhibitory activity (EC50)
T3 construct: All four purified enzymes contain only the catalytic domain; His (N); purchased Carna Biosciences, Inc; host or cells: baculovirus expression system
Experimental: as §1, §2

T1 sequence (O60674 849-1124 limits assumed): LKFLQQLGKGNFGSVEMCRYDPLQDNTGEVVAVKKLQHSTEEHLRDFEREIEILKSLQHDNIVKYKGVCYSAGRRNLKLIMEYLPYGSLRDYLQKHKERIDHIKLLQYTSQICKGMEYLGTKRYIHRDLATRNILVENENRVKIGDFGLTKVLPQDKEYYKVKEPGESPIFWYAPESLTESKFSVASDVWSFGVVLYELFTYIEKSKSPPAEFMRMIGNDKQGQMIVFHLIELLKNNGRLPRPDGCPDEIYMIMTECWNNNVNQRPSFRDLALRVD
T3 sequence (P52333 822-1111 limits assumed): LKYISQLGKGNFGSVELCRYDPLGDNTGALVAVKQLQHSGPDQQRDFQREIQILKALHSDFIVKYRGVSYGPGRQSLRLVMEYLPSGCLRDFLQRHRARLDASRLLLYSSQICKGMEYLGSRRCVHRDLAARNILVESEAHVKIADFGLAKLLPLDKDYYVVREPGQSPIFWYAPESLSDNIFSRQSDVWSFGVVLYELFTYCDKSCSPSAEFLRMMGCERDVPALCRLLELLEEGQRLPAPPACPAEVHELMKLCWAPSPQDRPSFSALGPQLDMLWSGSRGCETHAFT
T2 sequence (P23458 850-1154): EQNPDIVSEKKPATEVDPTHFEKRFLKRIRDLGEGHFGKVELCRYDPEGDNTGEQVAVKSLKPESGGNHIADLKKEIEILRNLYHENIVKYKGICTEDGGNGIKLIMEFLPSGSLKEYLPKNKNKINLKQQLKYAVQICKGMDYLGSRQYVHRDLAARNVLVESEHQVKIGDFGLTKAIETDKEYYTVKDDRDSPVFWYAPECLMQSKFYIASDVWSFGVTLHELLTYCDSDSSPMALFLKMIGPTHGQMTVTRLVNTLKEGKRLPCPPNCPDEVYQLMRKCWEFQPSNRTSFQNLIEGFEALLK

Row | SMILES | EC50 (JAK2) [nM] | EC50 (JAK1) [nM] | EC50 (JAK3) [nM]
1 | CC(C)N(C)C(=O)N1CCN(c2ncnc3[nH]ccc23)CC2(CC2)C1 [Example 223, N-isopropyl-N-methyl-5-(7H-pyrrolo[2,3-d]pyrimidin-4-yl)-5,8-diazaspiro[2.6]nonane-8-carboxamide] | 100 to 1000 | 100 to 1000 | 100 to 1000
2 | Cc1cc(C(=O)N2CCN(c3ncnc4[nH]ccc34)CC3(CC3)C2)no1 [Example 175, (5-methylisoxazol-3-yl)-[5-(7H-pyrrolo[2,3-d]pyrimidin-4-yl)-5,8-diazaspiro[2.6]nonan-8-yl]methanone] | 100 to 1000 | 100 to 1000 | 100 to 1000
3 | O=C(N1CCN(c2ncnc3[nH]ccc23)CC2(CC2)C1)C1(c2ccccc2)CC1 [Example 260, (1-phenylcyclopropyl)-[5-(7H-pyrrolo[2,3-d]pyrimidin-4-yl)-5,8-diazaspiro[2.6]nonan-8-yl]methanone] | 100 to 1000 | > 1000 | > 1000
4 | Cc1cncc(C(=O)N2CCN(c3ncnc4[nH]ccc34)CC3(CC3)C2)n1 [Example 169, (6-methylpyrazin-2-yl)-[5-(7H-pyrrolo[2,3-d]pyrimidin-4-yl)-5,8-diazaspiro[2.6]nonan-8-yl]methanone] | 100 to 1000 | > 1000 | > 1000
5 | Cc1ccncc1C(=O)N1CCN(c2ncnc3[nH]ccc23)CC2(CC2)C1 [Example 150, (4-methyl-3-pyridyl)-[5-(7H-pyrrolo[2,3-d]pyrimidin-4-yl)-5,8-diazaspiro[2.6]nonan-8-yl]methanone] | > 1000 | 100 to 1000 | > 1000
6 | O=C(c1cc[nH]n1)N1CCCN(c2ncnc3[nH]ccc23)CC12CC2 [Example 183, 1H-pyrazol-3-yl-[5-(7H-pyrrolo[2,3-d]pyrimidin-4-yl)-5,9-diazaspiro[2.6]nonan-9-yl]methanone] | 100 to 1000 | 100 to 1000 | 100 to 1000
7 | O=C(c1ccc(Cl)cc1)N1CCN(c2ncnc3[nH]ccc23)CC2(CC2)C1 [Example 176, (4-chlorophenyl)-[5-(7H-pyrrolo[2,3-d]pyrimidin-4-yl)-5,8-diazaspiro[2.6]nonan-8-yl]methanone] | < 100 | 100 to 1000 | 100 to 1000
8 | O=C(c1ccnnc1)N1CCN(c2ncnc3[nH]ccc23)CC2(CC2)C1 [Example 139, pyridazin-4-yl-[5-(7H-pyrrolo[2,3-d]pyrimidin-4-yl)-5,8-diazaspiro[2.6]nonan-8-yl]methanone] | 100 to 1000 | 100 to 1000 | > 1000
9 | O=C(c1cccnc1)N1CCN(c2ncnc3[nH]ccc23)CC2(CC2)C1 [Example 127, 3-pyridyl-[5-(7H-pyrrolo[2,3-d]pyrimidin-4-yl)-5,8-diazaspiro[2.6]nonan-8-yl]methanone] | 100 to 1000 | 100 to 1000 | > 1000
10 | O=C(c1ccncc1)N1CCN(c2ncnc3[nH]ccc23)CC2(CC2)C1 [Example 129, 4-pyridyl-[5-(7H-pyrrolo[2,3-d]pyrimidin-4-yl)-5,8-diazaspiro[2.6]nonan-8-yl]methanone] | 100 to 1000 | 100 to 1000 | > 1000
11 | Cn1cncc1C(=O)N1CCN(c2ncnc3[nH]ccc23)CC2(CC2)C1 [Example 144, (3-methylimidazol-4-yl)-[5-(7H-pyrrolo[2,3-d]pyrimidin-4-yl)-5,8-diazaspiro[2.6]nonan-8-yl]methanone] | 100 to 1000 | 100 to 1000 | > 1000
12 | O=C(c1ccccc1F)N1CCCN(c2ncnc3[nH]ccc23)CC12CC2 [Example 112, (2-fluorophenyl)-[5-(7H-pyrrolo[2,3-d]pyrimidin-4-yl)-5,9-diazaspiro[2.6]nonan-9-yl]methanone] | < 100 | 100 to 1000 | 100 to 1000
13 | Cc1[nH]ncc1C(=O)N1CCCN(c2ncnc3[nH]ccc23)CC12CC2 [Example 207, (5-methyl-1H-pyrazol-4-yl)-[5-(7H-pyrrolo[2,3-d]pyrimidin-4-yl)-5,9-diazaspiro[2.6]nonan-9-yl]methanone] | 100 to 1000 | > 1000 | > 1000
14 | O=C(c1ccno1)N1CCN(c2ncnc3[nH]ccc23)CC2(CC2)C1 [Example 177, isoxazol-5-yl-[5-(7H-pyrrolo[2,3-d]pyrimidin-4-yl)-5,8-diazaspiro[2.6]nonan-8-yl]methanone] | 100 to 1000 | 100 to 1000 | 100 to 1000
15 | O=C(c1n[nH]c(Cl)n1)N1CCN(c2ncnc3[nH]ccc23)CC2(CC2)C1 [Example 231, (5-chloro-1H-1,2,4-triazol-3-yl)-[5-(7H-pyrrolo[2,3-d]pyrimidin-4-yl)-5,8-diazaspiro[2.6]nonan-8-yl]methanone] | 100 to 1000 | 100 to 1000 | 100 to 1000
16 | O=C(c1cc[nH]n1)N1CCN(c2ncnc3[nH]ccc23)CC2(CC2)C1 [Example 182, 1H-pyrazol-3-yl-[5-(7H-pyrrolo[2,3-d]pyrimidin-4-yl)-5,8-diazaspiro[2.6]nonan-8-yl]methanone] | 100 to 1000 | 100 to 1000 | 100 to 1000
17 | O=C(c1ccc(F)cc1)N1CCCN(c2ncnc3[nH]ccc23)CC12CC2 [Example 114, (4-fluorophenyl)-[5-(7H-pyrrolo[2,3-d]pyrimidin-4-yl)-5,9-diazaspiro[2.6]nonan-9-yl]methanone] | < 100 | 100 to 1000 | 100 to 1000
18 | Cc1oncc1C(=O)N1CCCN(c2ncnc3[nH]ccc23)CC12CC2 [Example 187, (5-methylisoxazol-4-yl)-[5-(7H-pyrrolo[2,3-d]pyrimidin-4-yl)-5,9-diazaspiro[2.6]nonan-9-yl]methanone] | 100 to 1000 | 100 to 1000 | 100 to 1000
19 | O=C(c1cnsn1)N1CCN(c2ncnc3[nH]ccc23)CC2(CC2)C1 [Example 202, [5-(7H-pyrrolo[2,3-d]pyrimidin-4-yl)-5,8-diazaspiro[2.6]nonan-8-yl]-(1,2,5-thiadiazol-3-yl)methanone] | 100 to 1000 | 100 to 1000 | 100 to 1000
20 | Cc1cc(C(=O)N2CCCN(c3ncnc4[nH]ccc34)CC23CC3)on1 [Example 122, (3-methylisoxazol-5-yl)-[5-(7H-pyrrolo[2,3-d]pyrimidin-4-yl)-5,9-diazaspiro[2.6]nonan-9-yl]methanone] | < 100 | < 100 | 100 to 1000
21 | O=C(c1ccccc1Cl)N1CCN(c2ncnc3[nH]ccc23)CC2(CC2)C1 [Example 185, (2-chlorophenyl)-[5-(7H-pyrrolo[2,3-d]pyrimidin-4-yl)-5,8-diazaspiro[2.6]nonan-8-yl]methanone] | 100 to 1000 | 100 to 1000 | > 1000
22 | O=C(c1cscn1)N1CCCN(c2ncnc3[nH]ccc23)CC12CC2 [Example 227, [5-(7H-pyrrolo[2,3-d]pyrimidin-4-yl)-5,9-diazaspiro[2.6]nonan-9-yl]-thiazol-4-yl-methanone] | < 100 | 100 to 1000 | 100 to 1000
23 | O=C(c1ccncc1)N1CCCN(c2ncnc3[nH]ccc23)CC12CC2 [Example 130, 4-pyridyl-[5-(7H-pyrrolo[2,3-d]pyrimidin-4-yl)-5,9-diazaspiro[2.6]nonan-9-yl]methanone] | 100 to 1000 | 100 to 1000 | > 1000
24 | CN(C)c1ccc(CC(=O)N2CCN(c3ncnc4[nH]ccc34)CC3(CC3)C2)cc1 [Example 268, 2-(4-dimethylaminophenyl)-1-[5-(7H-pyrrolo[2,3-d]pyrimidin-4-yl)-5,8-diazaspiro[2.6]nonan-8-yl]ethanone] | < 100 | 100 to 1000 | 100 to 1000
25 | O=C(c1ccc(F)cc1)N1CCN(c2ncnc3[nH]ccc23)CC2(CC2)C1 [Example 113, (4-fluorophenyl)-[5-(7H-pyrrolo[2,3-d]pyrimidin-4-yl)-5,8-diazaspiro[2.6]nonan-8-yl]methanone] | 100 to 1000 | 100 to 1000 | 100 to 1000
